According to paper PMC10449632, “Structural basis for translation inhibition by the glycosylated drosocin peptide” (Nature Chemical Biology, 2023):
No end group written: not given here. *: point of attachment. αGalNAc = CC(=O)N[C@@H]1[C@@H](O)[C@@H](O)[C@@H](CO)O[C@@H]1*

Legend:
[1] = tested on: ribosomes at the stop codon of MLIF-UAA mRNA in the presence of RF2; test: Toeprinting assay on MLIF*-mRNA with RF2; type: biochemical, Escherichia coli; details: Fig 1h, RF2 (10X), 30 μM compound, plotted values
Protocol: To ascertain which step during protein synthesis is affected by drosocin, we performed toeprinting assays, where reverse transcription is used to monitor the position of ribosomes on a defined mRNA[34].
Toeprinting reactions were performed as described previously. In brief, reactions were performed with 6 μl of PURExpress ΔRF123 in vitro protein synthesis system (NEB) in the presence of 1× RF3 and either 1× or 10× of RF1 or RF2 (relative to the manufacturer’s recommendation). The reactions were carried out on an MLIF-UAA-toeprint template (5′-[…]-3′, ORF start codon and stop codon are underlined bold), containing T7 promoter, a ribosome binding site, an MLIF-coding ORF and the NV1* primer binding site. The template is a version of the ErmBL template with a truncated ORF and addition of a isoleucine coding codon at the third position in the ORF. The template was generated by polymerase chain reaction of two overlapping 77-nt- and 78-nt-long primers. The reactions contained 30 ng of the MLIF-UAA-toeprint DNA template. The reactions were supplemented with Api137, thiostrepton or one of the drosocin derivates as specified. The transcription–translation reactions were incubated for 15 minutes at 37 °C. The reverse transcription on the MLIF-short-UAA toeprint template was carried out using AMV RT and primer NV*1-Alexa 647 (5′-[…]-3′). The transcription–translation reactions were incubated with AMV RT and NV*1-Alexa 647 for 20 minutes at 37 °C. mRNA degradation was carried out by the addition of 1 µl of 5 M NaOH. The reactions were neutralized with 0.7 µl of 25% HCl, and nucleotide removal was performed with the QIAquick Nucleotide Removal Kit (Qiagen). The samples were dried under vacuum for 2 hours at 60 °C for subsequent gel electrophoresis. The 6% acrylamide gels were scanned on a Typhoon scanner (GE Healthcare).

E. coli SQ171 A752G = test: Antibiotic susceptibility (growth) assay, E. coli SQ171 A752G; type: cell-based, Escherichia coli; details: relative to no compound, mean of 3 replicas
Excerpt: (§1) In addition, we also used a strain with a U2609C–A752G double mutation, which would be predicted to restore Watson–Crick base pairing, and with three hydrogen bonds could possibly make breaking the base pair harder than with the canonical two hydrogen bonds for the A–U base pair. As a control, we also tested Dro that lacks the α-D-GalNAc modification, which we predict (assuming that Dro binds analogously to Dro1) should not interact with U2609 and, therefore, not be influenced by the conformation of the U2609–A752 base pair.
(§2) Strains E. coli Keio wild-type and E. coli Keio ΔsbmA used from the Keio knockout collection (Horizon, https://horizondiscovery.com). Wild-type E. coli SQ110 (ΔrrnGADBHC(ptRNA67))[47] and SQ171 (ΔrrnGADEHBC(pKK3535, ptRNA67))[47] strains and related mutants E. coli SQ110 A2059G and E. coli SQ171 A2503G were obtained from the previous Api137 study. E. coli strains SQ171 bearing A752G, U2609C and A752G:U2609C mutations[43] and E. coli SQ171 U2609G[48] were generated previously.
(§3) The susceptibility of E. coli strains to compounds was evaluated by monitoring the bacterial growth in presence of increasing concentrations of the compound of interest. In brief, bacteria were inoculated in a total volume of 100 μl of medium contained in a well of a 96-well microplate (round bottom, with cap, sterile; Sarstedt). The medium used was either LB, as rich medium, or ATCC medium (778 Davis and Mingioli glucose minimal medium), as minimal medium. Before inoculation, bacteria were grown up to exponential phase and then inoculated into the culture mix, containing selective antibiotic if necessary, with an initial optical density at 600 nm (OD600) of 0.05. Values measured from wells containing just the medium were used as a blank. The growth in each well was monitored by measuring the OD600 every 10 minutes for a total of 20 hours at 37 °C with shaking using a plate reader (Tecan Infinite 200 PRO). The inhibition resulting from a compound’s concentration was evaluated by normalizing the OD600 at t = 12 hours (corresponding to the end of the log phase) from the treated culture to the untreated one. For each compound, the concentrations tested were 5 μM, 10 μM and 30 μM. Each single titration assay was done in triplicate with individually prepared culture mixes. For each concentration, the standard deviation was calculated, taking into account each single replica and its specific technical error from the plate reader.

E. coli SQ171 U2609G = test: Antibiotic susceptibility (growth) assay, E. coli SQ171 U2609G; type: cell-based, Escherichia coli; details: relative to no compound, mean of 3 replicas
Excerpt: as §1, §2, §3

[2] = tested on: E. coli Keio wt (BW25113); test: Antibiotic susceptibility (growth) assay, E. coli Keio wild-type; type: cell-based, Escherichia coli; details: 30 μM peptide; for Average of normalized growth: average of three biological replicates; for growth inhibition in rich medium: rich (LB) medium
Excerpt: Many PrAMPs use the SbmA transporter to pass through the E. coli inner membrane[4],[10],[31]; however, whether drosocin also uses SbmA remains, to our knowledge, unknown. To address this, we monitored the effect of the presence of diverse drosocin peptides (Fig. 1a,b and Supplementary Fig. 1a) on the growth of the wild-type E. coli strain BW25113 containing SbmA or lacking SbmA (ΔsbmA) (Fig. 1c,d). We compared unmodified drosocin (Dro) with various modified forms (Fig. 1a,b). The modified forms included the naturally occurring Dro1 and Dro2 that carry either a monosaccharide (α-D-GalNAc) or disaccharide (β-D-Gal(1→3)-α-D-GalNAc) attached to Thr11, respectively (Fig. 1b). In addition, we examined the previously reported[23],[24] drosocin derivatives bearing β-D-Maltosyl (Dro3), α-D-GlcNAc (Dro4), β-D-Gal (Dro5), β-D-Glc (Dro6), β-D-Lactosyl (Dro7) and β-D-Cellobiosyl (Dro8) modifications on Thr11 (Fig. 1a,b and Supplementary Fig. 1a). Finally, we also included in our analysis the synthetic unmodified drosocin derivative with proline substitutions at positions 7, 11 and 12 (Dro-3P) (Fig. 1a), which was previously reported to have similar antimicrobial activity to the monosaccharide form of drosocin[25]. Growth was monitored in both rich (LB) and minimal medium in the presence of 30 μM of each peptide and normalized with the growth in the absence of the compounds (Methods). […] We also observed no inhibition for Dro2 nor for any of the β-linked disaccharides (Dro3, Dro6 or Dro7). […] By contrast, all drosocin peptides inhibited growth of the E. coli BW25113 strain in minimal medium, albeit to different extents (Fig. 1d).
as §2, §3

E. coli SQ171 wt = test: Antibiotic susceptibility (growth) assay, E. coli SQ171 wt; type: cell-based, Escherichia coli; details: relative to no compound, mean of 3 replicas
Excerpt: as §2, §3

Substance	Relative stop band intensity signal [1]	OD600 at t = 12 h, Normalized, Average (E. coli SQ171 A752G; 5 μM)	OD600 at t = 12 h, Normalized, Average (E. coli SQ171 A752G; 30 μM)	OD600 at t = 12 h, Normalized, Average (E. coli SQ171 U2609G; 5 μM)	OD600 at t = 12 h, Normalized, Average (E. coli SQ171 U2609G; 30 μM)	Average of normalized growth ([2]; LB rich medium)	Average of normalized growth ([2]; Minimal medium)	growth inhibition in minimal medium [2]	growth inhibition in rich medium [2]	OD600 at t = 12 h, Normalized, Average (E. coli SQ171 wt; 5 μM)	OD600 at t = 12 h, Normalized, Average (E. coli SQ171 wt; 30 μM)
Dro: unmodified drosocin, 19 amino acid proline-rich antimicrobial peptide lacking O-glycosylation (GKPRPYSPRPTSHPRPIRV; Drosocin; UniProt P36193 22-40, looked up)	0.1232	84%	59%	87%	59%	98%	87%	lowest	inactive	86%	72%
Dro1: naturally occurring drosocin carrying monosaccharide α-D-GalNAc attached to Thr11 (GKPRPYSPRPT(αGalNAc)SHPRPIRV; UniProt P36193 22-40, looked up)	0.1899	70%	7%	50%	8%	38%	6%	highest inhibition	growth inhibition	93%	11%
